We go through 2 compounds from patent US20220280425A1, “FLAVONOIDS AND LINOLEIC ACID USES IN HYPERTENSION” (King Abdulaziz University, priority 2021, published 2022).

Molecules are shown by their SMILES.

Data set [1] has as its system angiotensin model of hypertensive rats. Description: Invasive blood pressure recording in angiotensin II acute hypertension model. Conditions: for anti-hypertensive effect: current study, IV SNEDDS formulation, angiotensin II infused rats. The class given is in vivo, male Wistar rats. The protocol: (§1) Six-week-old male Wistar rats with a weight of (250-275 g) were obtained from Zagazig University. They were kept in clear cages made of polypropylene and with good ventilation (3-4 rats in each cage), under constant environmental conditions of 22±2° C. temperature, 50-60% relative humidity and 12-h day and night cycle. Unlimited rodent pellet food and purified water were provided to the rats. The experimental design and animal handling procedures were as indicated by the guidelines of the Ethical Committee for Animal Handling at Zagazig University.
The blood pressure was recorded invasively in real. The rats were subjected to anesthesia with single intraperitoneal injection of 100 mg/kg ketamine and 10 mg/kg xylazine. Animals' body temperature was held at 37° C. by means of a rectal probe and automated heating pads. A micro-tip pressure volume catheter (PV catheter, SPR-901, Millar Instruments, Houston, Tex., USA) was inserted via a small opening into the right carotid artery. This instrument can continuously monitor the arterial pressure. The micro-tip catheter was linked via a Power Lab Data Interface to a computer running the Lab Chart professional software (v8.0, AD Instruments, Bella Vista, Australia) incorporating blood pressure (BP) module. Following a stabilization time of 5 min, readings were continuously recorded. The BP module was employed to monitor the systolic and diastolic blood pressure.
(§2) After 10 min (stabilization period) of basal recording of invasive blood pressure and ECG, angiotensin II (120 ng/min/kg) was slowly infused through the femoral vein using syringe pump and continued throughout the experiment duration.
(§3) Invasive blood hemodynamics and ECG were continuously recorded throughout the experiment. Saline (0.3 ml) was injected in time control experiments.
(§4) Values of the present study presented in form of mean ±SEM. Statistical analysis was carried out using the Prism 5 computer program (Graph Pad, USA). Statistical comparison was done using repeated measures Two way analysis of variance (ANOVA) followed by Bonferroni' post-hoc test of baseline-corrected data and P<0.05 was considered significant.

Data set [2] has the same test system. Briefly: Electrocardiogram (ECG) recording in angiotensin II acute hypertension model. Type of data set: in vivo, male Wistar rats. Conditions: IV formulation. The protocol:
as §1
A Powerlab® system (AD Instruments, Bella Vista, Australia) linked to a computer running the LabChart professional software with the ECG module was employed to record the standard surface ECG according to the methodology outlined in a previous report by our group. The ECG module quantitatively assesses the various elements of the ECG.
as §2, §3, §4

The conditions of data set [3]: previous report; cited from earlier work.
Where [4] appears, read: IV formulation, 10 min after doses 24 and 36 μg/kg, vs vehicle group, p<0.05.
Where [5] appears, read: dose 36 μg/kg, vs vehicle group, p<0.05.

`COc1cc(-c2cc(=O)c3c(O)c(OC)c(OC)cc3o2)cc(OC)c1OC` [Compound 1, umuhengerin]: the reflex tachycardia entry in data set [1] (IV SNEDDS containing 10% linoleic acid) is reported as “without reflex tachycardia”. Moreover, in data set [1] (setting [4]), the dicrotic notch pressure result is “significant reduction” and the pulse pressure entry is on record as “significant reduction”. Further, the non-ejection duration result in data set [1] (IV formulation, dose 36 μg/kg, vs vehicle group) is “significant increase”. Also, the “SDP difference (systolic blood pressure-dicrotic notch pressure difference)” value in data set [1] (IV formulation, doses 12, 24 and 36 μg/kg, vs vehicle group, p<0.05) was “significant reduction”. Also, in data set [1] (IV formulation, doses 24 and 36 μg/kg, vs vehicle group), the ejection duration result was “significant decrease”. In data set [1] (IV formulation, vs vehicle group), the time to peak result is reported as “no change”. The systolic blood pressure entry in data set [1] (IV linoleic acid SNEDDS formulation, 12, 24 and 36 μg/kg, 10 min after each dose, p<0.05) is “gradual dose dependent reduction”. The diastolic blood pressure result in data set [1] (IV linoleic acid SNEDDS formulation, significant at 24 and 36 μg/kg vs plain IV formulation, p<0.05) was “gradual and reached a plateau with statistical significance”. In addition, in data set [1], the anti-hypertensive effect entry is listed as “observed”. For the same compound, the heart rate result in data set [1] (medicated IV formulation compared with the plain IV formulation) is “did not produced any further effect”. In addition, in data set [2] (12, 24, 36 μg/kg), the JT interval result was “no significant effect”, the P-wave duration entry is reported as “did not affect”, the PR interval entry was “did not affect” and the QTc interval result was “no significant effect”. For the same compound, in data set [2] (setting [5]), the R wave amplitude entry is reported as “significant decrease” and the T wave amplitude result is given as “increase”. Also, the vasodilation activity entry in data set [3] was “significant vasodilation activity”.
For `COc1ccc(-c2cc(=O)c3c(O)cc(O)cc3o2)cc1OC` [Compound 4, luteolin-3′,4′ -dimethyl ether], in data set [1], the anti-hypertensive effect result was “lack of antihypertensive efficacy”. Besides, in data set [3], the vasodilation activity entry is reported as “significant vasodilation activity”.
